Experimental data published in ChEMBL document CHEMBL1201862, “PubChem BioAssay data set” (2004).
Calls of active or inactive are those of the source.

Experiments:
cells = assay type: functional
[1] = biological target: T1, Rac GTPase-activating protein 1 (Homo sapiens, UniProt Q9H0H5); assay: blockers of MgcRacGAP-driven Rac1 GTP hydrolysis – biochemical, ADP Hunter fluorescence, primary and confirmatory, confirmation (AID 624330); assay type: functional
T1 sequence (Q9H0H5 whole entry): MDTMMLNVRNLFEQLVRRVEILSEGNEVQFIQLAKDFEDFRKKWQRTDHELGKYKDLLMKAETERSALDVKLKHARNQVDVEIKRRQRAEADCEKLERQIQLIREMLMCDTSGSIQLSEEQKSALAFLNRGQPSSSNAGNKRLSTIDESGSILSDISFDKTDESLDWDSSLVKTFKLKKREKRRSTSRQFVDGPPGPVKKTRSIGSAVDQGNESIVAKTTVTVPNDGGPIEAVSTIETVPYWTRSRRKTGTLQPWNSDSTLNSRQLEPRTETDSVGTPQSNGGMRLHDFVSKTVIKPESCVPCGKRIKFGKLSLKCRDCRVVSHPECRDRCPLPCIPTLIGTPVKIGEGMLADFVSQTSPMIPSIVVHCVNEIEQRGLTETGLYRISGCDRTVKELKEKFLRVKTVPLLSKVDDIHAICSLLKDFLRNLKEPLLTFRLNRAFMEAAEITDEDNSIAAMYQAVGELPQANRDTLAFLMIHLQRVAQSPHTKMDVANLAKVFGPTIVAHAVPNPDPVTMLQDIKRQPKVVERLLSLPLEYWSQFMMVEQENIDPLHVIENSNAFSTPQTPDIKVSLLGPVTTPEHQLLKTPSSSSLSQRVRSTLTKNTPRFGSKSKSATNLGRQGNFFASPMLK

Large T antigen = Large T antigen (Simian virus 40, UniProt P03070); assay type: functional, Betapolyomavirus macacae;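 also: Confirmatory-stage PubChem screen for compounds that inhibit SV40 T antigen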
Large T antigen, sequence (P03070 whole entry): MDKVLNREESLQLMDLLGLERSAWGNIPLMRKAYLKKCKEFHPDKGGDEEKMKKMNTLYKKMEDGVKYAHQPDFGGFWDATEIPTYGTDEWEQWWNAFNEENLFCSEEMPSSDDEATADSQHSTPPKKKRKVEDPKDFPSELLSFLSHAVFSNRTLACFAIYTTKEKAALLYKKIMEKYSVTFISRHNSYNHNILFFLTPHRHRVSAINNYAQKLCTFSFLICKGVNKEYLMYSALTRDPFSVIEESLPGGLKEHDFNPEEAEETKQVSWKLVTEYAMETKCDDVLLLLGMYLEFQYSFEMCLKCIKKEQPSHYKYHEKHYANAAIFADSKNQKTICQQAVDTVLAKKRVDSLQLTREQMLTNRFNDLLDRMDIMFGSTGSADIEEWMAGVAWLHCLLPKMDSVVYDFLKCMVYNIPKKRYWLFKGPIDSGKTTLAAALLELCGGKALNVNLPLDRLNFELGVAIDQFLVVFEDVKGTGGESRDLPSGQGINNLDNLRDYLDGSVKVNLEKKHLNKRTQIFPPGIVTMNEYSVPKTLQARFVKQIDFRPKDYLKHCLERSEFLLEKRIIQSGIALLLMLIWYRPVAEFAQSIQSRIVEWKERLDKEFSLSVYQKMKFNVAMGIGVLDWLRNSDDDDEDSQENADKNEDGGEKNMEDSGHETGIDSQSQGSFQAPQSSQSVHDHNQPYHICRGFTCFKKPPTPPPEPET

Cytochrome P450 2D6 = Cytochrome P450 2D6 (Homo sapiens, UniProt P10635);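 also: CYP2D6 member of a cytochrome P450 panel assay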
Cytochrome P450 2D6, sequence (P10635 whole entry): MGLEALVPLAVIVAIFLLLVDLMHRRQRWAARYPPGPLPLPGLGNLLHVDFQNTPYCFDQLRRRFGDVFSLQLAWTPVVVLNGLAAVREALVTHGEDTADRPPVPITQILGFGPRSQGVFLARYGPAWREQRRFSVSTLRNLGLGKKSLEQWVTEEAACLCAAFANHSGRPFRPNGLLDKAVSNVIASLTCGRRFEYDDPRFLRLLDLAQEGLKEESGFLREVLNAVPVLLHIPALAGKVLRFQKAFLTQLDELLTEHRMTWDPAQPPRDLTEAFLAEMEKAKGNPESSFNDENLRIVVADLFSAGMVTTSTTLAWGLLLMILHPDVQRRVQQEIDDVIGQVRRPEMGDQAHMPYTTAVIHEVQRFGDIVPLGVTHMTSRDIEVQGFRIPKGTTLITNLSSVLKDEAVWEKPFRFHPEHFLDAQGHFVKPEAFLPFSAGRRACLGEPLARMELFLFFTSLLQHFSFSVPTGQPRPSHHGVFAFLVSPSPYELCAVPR

Cytochrome P450 3A4 = Cytochrome P450 3A4 (Homo sapiens, UniProt P08684);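 also: CYP3A4 tested as one member of a cytochrome P450 panel screen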
Cytochrome P450 3A4, sequence (P08684 whole entry): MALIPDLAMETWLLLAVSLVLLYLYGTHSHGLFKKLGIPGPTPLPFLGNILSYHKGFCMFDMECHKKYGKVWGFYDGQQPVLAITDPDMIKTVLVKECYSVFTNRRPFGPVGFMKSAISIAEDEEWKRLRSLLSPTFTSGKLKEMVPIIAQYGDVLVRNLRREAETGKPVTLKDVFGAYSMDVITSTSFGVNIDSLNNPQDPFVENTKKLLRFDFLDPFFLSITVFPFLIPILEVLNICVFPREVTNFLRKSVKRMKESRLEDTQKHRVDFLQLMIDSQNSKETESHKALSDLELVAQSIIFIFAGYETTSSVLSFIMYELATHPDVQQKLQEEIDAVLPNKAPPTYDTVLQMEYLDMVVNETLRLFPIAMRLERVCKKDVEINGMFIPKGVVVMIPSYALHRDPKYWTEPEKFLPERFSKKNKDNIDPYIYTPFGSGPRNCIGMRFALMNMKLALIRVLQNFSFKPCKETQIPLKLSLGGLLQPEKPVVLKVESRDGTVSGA

Cytochrome P450 1A2 = biological target: T2, Cytochrome P450 1A2 (Homo sapiens, UniProt P05177);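 also: PubChem cytochrome P450 panel assay, CYP1A2 panel member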
T2 sequence (P05177 whole entry): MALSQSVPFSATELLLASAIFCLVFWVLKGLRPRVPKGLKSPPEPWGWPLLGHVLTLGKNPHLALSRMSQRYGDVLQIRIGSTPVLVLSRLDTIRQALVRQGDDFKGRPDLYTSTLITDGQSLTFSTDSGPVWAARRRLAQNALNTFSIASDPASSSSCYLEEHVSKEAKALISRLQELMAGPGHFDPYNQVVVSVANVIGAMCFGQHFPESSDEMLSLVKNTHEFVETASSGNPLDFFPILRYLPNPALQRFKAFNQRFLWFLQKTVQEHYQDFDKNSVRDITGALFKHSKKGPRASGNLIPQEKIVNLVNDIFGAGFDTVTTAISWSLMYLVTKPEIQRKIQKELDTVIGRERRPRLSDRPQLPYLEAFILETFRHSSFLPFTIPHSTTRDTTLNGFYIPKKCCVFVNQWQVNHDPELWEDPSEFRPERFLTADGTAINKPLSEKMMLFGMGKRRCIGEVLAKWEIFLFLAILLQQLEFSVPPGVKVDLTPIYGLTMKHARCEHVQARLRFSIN

Cytochrome P450 2C9 = Cytochrome P450 2C9 (Homo sapiens, UniProt P11712)
Cytochrome P450 2C9, sequence (P11712 whole entry): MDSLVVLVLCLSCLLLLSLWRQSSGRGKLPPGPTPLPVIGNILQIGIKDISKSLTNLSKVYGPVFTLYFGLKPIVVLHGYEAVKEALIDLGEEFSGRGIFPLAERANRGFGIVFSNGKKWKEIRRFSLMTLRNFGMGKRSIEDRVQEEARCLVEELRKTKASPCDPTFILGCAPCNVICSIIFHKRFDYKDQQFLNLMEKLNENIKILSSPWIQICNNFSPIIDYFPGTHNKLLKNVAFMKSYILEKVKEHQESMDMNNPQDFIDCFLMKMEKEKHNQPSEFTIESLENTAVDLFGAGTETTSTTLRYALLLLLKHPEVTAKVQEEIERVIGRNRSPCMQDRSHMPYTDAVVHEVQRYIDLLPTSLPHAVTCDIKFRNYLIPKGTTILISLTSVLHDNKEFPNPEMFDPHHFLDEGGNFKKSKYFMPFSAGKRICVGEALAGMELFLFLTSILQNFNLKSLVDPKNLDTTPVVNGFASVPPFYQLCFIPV

Streptococcus = assay: GAS UMAA2166 growth inhibition – luminescence, BacTiterGlo, counter-screen for streptokinase expression inhibitor project, dose response (AID 1915); assay type: functional, organism-based;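 also: potency for reduction of bacterial viability or growth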
[2] = tested on: Streptococcus sp. 'group A'; assay: Streptococcus pyogenes SK(-)GAS viability under kanamycin – luminescence, BacTiterGlo, confirmation, counter-screen for streptokinase expression inhibitor project, dose response (AID 1900); assay type: functional, organism-based
Cytochrome P450 2C19 = Cytochrome P450 2C19 (Homo sapiens, UniProt P33261); assay: Cytochrome panel assay with activity outcomes. Panel member name: p450-cyp2c19 Compounds with AC50 equal or less than 10 uM are considered active; assay type: functional; settings: read-out: AC50
Cytochrome P450 2C19, sequence (P33261 whole entry): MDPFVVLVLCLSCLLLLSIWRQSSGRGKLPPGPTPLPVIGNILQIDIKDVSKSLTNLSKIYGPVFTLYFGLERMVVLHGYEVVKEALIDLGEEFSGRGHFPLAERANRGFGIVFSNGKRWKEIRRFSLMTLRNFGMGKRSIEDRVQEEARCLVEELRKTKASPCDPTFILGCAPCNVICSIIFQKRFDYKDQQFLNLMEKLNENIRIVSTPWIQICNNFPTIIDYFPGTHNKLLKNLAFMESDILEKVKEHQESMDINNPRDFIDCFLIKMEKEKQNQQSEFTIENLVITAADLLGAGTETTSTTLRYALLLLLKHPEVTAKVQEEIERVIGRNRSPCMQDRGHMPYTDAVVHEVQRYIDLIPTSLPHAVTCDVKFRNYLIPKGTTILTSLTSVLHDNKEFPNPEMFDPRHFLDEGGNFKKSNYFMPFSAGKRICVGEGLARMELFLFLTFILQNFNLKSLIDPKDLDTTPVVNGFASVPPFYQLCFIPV

[3] = biological target: T3, Zinc finger protein mex-5 (Caenorhabditis elegans, UniProt Q9XUB2); assay: potency of MEX-5 RNA-binding blockers – biochemical, C. elegans, fluorescence polarization, dose response (AID 1960)
T3 sequence (Q9XUB2 whole entry): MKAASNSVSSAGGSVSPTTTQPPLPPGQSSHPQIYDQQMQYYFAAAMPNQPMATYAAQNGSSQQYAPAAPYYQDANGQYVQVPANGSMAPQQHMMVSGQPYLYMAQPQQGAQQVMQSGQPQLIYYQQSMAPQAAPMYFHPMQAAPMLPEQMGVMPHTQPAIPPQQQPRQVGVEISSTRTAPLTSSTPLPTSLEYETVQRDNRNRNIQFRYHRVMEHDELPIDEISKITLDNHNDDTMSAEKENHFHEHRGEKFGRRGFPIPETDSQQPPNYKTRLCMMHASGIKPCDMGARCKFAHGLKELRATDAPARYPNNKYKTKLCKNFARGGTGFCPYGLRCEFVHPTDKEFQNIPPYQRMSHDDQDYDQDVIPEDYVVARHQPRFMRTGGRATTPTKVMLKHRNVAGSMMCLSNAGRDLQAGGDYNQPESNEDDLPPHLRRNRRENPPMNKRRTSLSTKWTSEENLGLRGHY

[4] = biological target: T4, RNA-binding protein pos-1 (Caenorhabditis elegans, UniProt G5EF15); assay: disruptors of C. elegans POS-1 RNA interaction – biochemical, fluorescence polarization, dose response (AID 1964);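 also: purified POS-1 fused to maltose binding protein made in E. coli; potency of compounds blocking POS-1 binding to fluorescent RNA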
T4 sequence (G5EF15 whole entry): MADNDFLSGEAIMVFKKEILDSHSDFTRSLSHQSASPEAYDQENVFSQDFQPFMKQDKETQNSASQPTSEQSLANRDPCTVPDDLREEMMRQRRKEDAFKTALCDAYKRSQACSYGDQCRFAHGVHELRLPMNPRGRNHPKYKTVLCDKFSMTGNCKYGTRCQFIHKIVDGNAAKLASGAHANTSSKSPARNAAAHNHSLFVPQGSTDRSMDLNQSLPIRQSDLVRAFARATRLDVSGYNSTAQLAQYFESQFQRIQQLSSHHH

[5] = Luminescence Cell-Based Dose Confirmation HTS to Identify Inhibitors of Platelet Dense Granule Release. [Related pubchem assays: 1663 (Primary HTS), 1678 (Summary of Project)]; assay type: functional
[6] = biological target: Luciferin 4-monooxygenase (Photinus pyralis, UniProt P08659); assay: inhibition of purified Photinus pyralis luciferase – biochemical, luminescence, dose response (AID 1891)
Luciferin 4-monooxygenase, sequence (P08659 whole entry): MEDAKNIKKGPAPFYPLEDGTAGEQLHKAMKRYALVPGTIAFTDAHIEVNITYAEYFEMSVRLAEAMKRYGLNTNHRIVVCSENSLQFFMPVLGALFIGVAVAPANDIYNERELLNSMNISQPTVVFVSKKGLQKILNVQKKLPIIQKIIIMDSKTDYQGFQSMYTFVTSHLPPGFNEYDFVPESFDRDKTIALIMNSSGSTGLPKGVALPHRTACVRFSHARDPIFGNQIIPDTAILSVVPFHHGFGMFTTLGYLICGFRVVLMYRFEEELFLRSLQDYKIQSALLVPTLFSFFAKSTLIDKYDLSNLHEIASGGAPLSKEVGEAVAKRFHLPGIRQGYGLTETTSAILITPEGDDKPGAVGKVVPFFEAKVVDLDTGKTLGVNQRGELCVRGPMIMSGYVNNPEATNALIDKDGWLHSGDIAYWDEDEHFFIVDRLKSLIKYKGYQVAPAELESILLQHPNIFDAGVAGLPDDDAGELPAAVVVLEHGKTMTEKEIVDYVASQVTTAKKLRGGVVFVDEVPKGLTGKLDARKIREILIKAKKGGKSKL

For `CCOC(=O)COc1ccc2c(c1)c(C(=O)OCC)c(C)n2CC`, which IC50 (cells) is on record?
The IC50 was 5.46 µM (active).

Which results are given for `C/N=c1\scc(C)n1/N=C/c1ccc(O)cc1O`?
IC50 [1]: 10.5 µM (active); IC50 (Large T antigen): 4.27 µM (active)

Which IC50 (Large T antigen) does the source give for `Oc1ccc2[nH]ccc2c1` here?
The IC50 was 80.2 µM (active).

Which results are given for `Fc1cccc(/C=N\N=C/c2cccc(F)c2)c1`?
AC50 (Cytochrome P450 2D6): 25.1 µM (inconclusive); AC50 (Cytochrome P450 3A4): 31.6 µM (inconclusive)

Which results are given for `CCCc1nc2ccccc2c(C(=O)OCC(=O)Nc2cccc(S(=O)(=O)N3CCOCC3)c2)c1CC`?
AC50 (Cytochrome P450 2D6): 17.8 µM (inconclusive); AC50 (Cytochrome P450 1A2): 10 µM (inconclusive)

For `O=C(Nc1ccc2nc(-c3ccc(Br)o3)[nH]c2c1)c1ccco1`, which AC50 (Cytochrome P450 2C9) is on record?
The AC50 was 11.2 µM (inconclusive).

And the AC50 (Cytochrome P450 2D6)?
Its AC50 is 1 µM (inconclusive).

Which results are given for `O=C(Nc1nnc(C2=COCCO2)o1)c1cccc(C(F)(F)F)c1`?
EC50 (Streptococcus): 7.55 µM (active); EC50 [2]: 2.96 µM (active); IC50 (cells): 4.89 µM (active)

For `COc1ccccc1-c1nc(NCc2cnc(C)cn2)c2ccccc2n1`, which AC50 (Cytochrome P450 2D6) is on record?
Its AC50 is 31.6 µM (inconclusive).

And the AC50 (Cytochrome P450 2C19)?
The AC50 was 39.8 µM (inconclusive).

Which results are given for `COC(=O)c1cc(C(=O)OC)cc(-n2c(C)cc(C(=O)CC#N)c2C)c1`?
EC50 [3]: > 300 µM (not active); EC50 [4]: > 300 µM (not active)

Which AC50 (Cytochrome P450 2D6) does the source give for `COCC(=O)N1CCC[C@@]2(CCN(c3ncccn3)C2)C1` here?
The AC50 was 15.8 µM (inconclusive).

For `COc1cc2c(cc1OC)-c1cc(Nc3ccc(N(C)C)cc3)nc(=O)n1CC2`, which EC50 [5] is on record?
The EC50 was 4.83 µM (active).

And the EC50 [6]?
The EC50 was > 112 µM (not active).

What about the IC50 (Large T antigen) of the same molecule?
The IC50 was 2.74 µM (active).

For `O=C1NC(=O)N(Cc2ccccc2Cl)C(=O)/C1=C/Nc1ccc(F)cc1`, which EC50 [3] is on record?
The EC50 was > 300 µM (not active).

And the EC50 [4]?
Its EC50 is > 300 µM (not active).

With `CCCCCCNC(=O)N[C@H](C(=O)NCCC[C@H]1CN2C(=NC[C@H]2C)N1CCC(c1ccccc1)c1ccccc1)C(C)O` (stereo partly drawn) as the molecule, how does the IC50 (Large T antigen) read?
The IC50 was > 100 µM (active).

What does the source list for `Cn1c(C(=O)NCC2CCCO2)cc2c(=O)n3ccccc3nc21` (stereo not drawn)?
AC50 (Cytochrome P450 2C9): 25.1 µM (inconclusive); AC50 (Cytochrome P450 2D6): 3.55 µM (inconclusive); AC50 (Cytochrome P450 2C19): 17.8 µM (inconclusive)

Which results are given for `N=c1c(C(=O)NC2CCCCC2)cc2c(=O)n3ccccc3nc2n1Cc1cccnc1`?
EC50 [3]: 12.7 µM (active); EC50 [4]: > 300 µM (not active)

With `Cc1ccc(S(=O)(=O)CCSc2nc(C)cc(C(F)(F)F)c2C#N)cc1` as the molecule, how does the EC50 [3] read?
Its EC50 is 80.8 µM (active).

And the EC50 [4]?
Its EC50 is > 300 µM (not active).

Which AC50 (Cytochrome P450 2D6) does the source give for `O=C(CSc1nc2ccccc2s1)Nc1nccs1` here?
The AC50 was 0.316 µM (inconclusive).

For `O=C(O)[C@@H]1Cc2c([nH]c3ccccc23)[C@@H](CCCCO)N1`, which AC50 (Cytochrome P450 2D6) is on record?
The AC50 was 3.98 µM (inconclusive).

With `COCCn1c(=O)c(-c2cccc(C#N)c2)nc2cnc(N(C)C)nc21` as the molecule, how does the AC50 (Cytochrome P450 2D6) read?
The AC50 was 0.1 µM (inconclusive).

And the AC50 (Cytochrome P450 1A2)?
Its AC50 is 2 µM (inconclusive).

With `N#CC1=C(N)Oc2[nH]nc(-c3cccnc3)c2C1c1ccc([N+](=O)[O-])o1` (stereo not drawn) as the molecule, how does the IC50 (cells) read?
Its IC50 is 9.19 µM (active).

Which IC50 (cells) does the source give for `O=C(Nc1ccc2c(c1)CCC2)c1ccc(Br)o1` here?
Its IC50 is > 50 µM (active).

For `Cc1ccc(N(CCC#N)C(=O)CSc2ccc3c(c2)OCCO3)cc1`, which AC50 (Cytochrome P450 2D6) is on record?
The AC50 was 25.1 µM (inconclusive).

For `COC(=O)c1[nH]c2ccccc2c1/C=C1\C(=O)NC(=O)N(c2ccc(OC)cc2)C1=O`, which IC50 (Large T antigen) is on record?
Its IC50 is 89 µM (active).

Which AC50 (Cytochrome P450 2D6) does the source give for `O=C(Nc1ccc(F)cc1)c1cc(S(=O)(=O)N2CCCCC2)cs1` here?
Its AC50 is 25.1 µM (inconclusive).

Which EC50 [3] does the source give for `CCOC(=O)c1c(NC(=O)CC2Nc3ccccc3NC2=O)sc(C)c1C` (stereo not drawn) here?
The EC50 was > 300 µM (not active).

And the EC50 [4]?
The EC50 was > 300 µM (not active).

Which IC50 (cells) does the source give for `CCOC(=O)c1cc(-c2csc(COc3ccccc3)n2)on1` here?
Its IC50 is < 0.1 µM (active).
